Experimental data taken from ChEMBL document CHEMBL1137053, “QSAR modeling of the MAO inhibitory activity of xanthones derivatives” (Bioorg Med Chem Lett, 2004).

molecular target: T1, Amine oxidase [flavin-containing] A (Homo sapiens, UniProt P21397); assay: Concentration required to inhibit monoamine oxidase activity by 50%
T1 sequence (P21397 whole entry): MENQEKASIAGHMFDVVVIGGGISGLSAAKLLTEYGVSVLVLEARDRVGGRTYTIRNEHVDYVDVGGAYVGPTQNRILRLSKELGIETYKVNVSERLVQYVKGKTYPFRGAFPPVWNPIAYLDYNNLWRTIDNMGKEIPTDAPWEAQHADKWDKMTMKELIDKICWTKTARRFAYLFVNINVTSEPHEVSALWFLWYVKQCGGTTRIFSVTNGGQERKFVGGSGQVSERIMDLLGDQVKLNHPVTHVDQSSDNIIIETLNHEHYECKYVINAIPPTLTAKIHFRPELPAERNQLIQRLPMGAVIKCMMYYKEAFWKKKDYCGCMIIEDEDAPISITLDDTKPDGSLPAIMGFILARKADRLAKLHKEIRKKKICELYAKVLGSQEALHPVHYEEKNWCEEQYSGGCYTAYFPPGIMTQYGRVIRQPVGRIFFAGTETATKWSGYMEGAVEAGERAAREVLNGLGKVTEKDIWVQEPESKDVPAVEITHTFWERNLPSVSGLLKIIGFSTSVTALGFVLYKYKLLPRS

| SMILES | IC50 [µM] |
| --- | --- |
| CC(C)=CCc1cc(O)c2oc3c(O)cccc3c(=O)c2c1O | 3.3 |
| O=c1c2cccc(O)c2oc2cccc(O)c12 | 0.73 |
| O=c1c2ccccc2oc2ccc(O)cc12 | 3.8 |
| COc1c(O)cc2oc3c(O)cccc3c(=O)c2c1O | 2.7 |
| Cc1c(O)c(Br)c2oc3ccccc3c(=O)c2c1O | 14.9 |
| O=c1c2c(O)cc(O)cc2oc2ccc(O)c(O)c12 | 24 |
| CC(C)=CCC/C(C)=C\Cc1c(O)cc(O)c2c(=O)c3cccc(O)c3oc12 | 37 |
| O=c1c2cc(O)c(O)cc2oc2cc(O)cc(O)c12 | 25 |
| O=c1c2ccccc2oc2cccc(O)c12 | 0.31 |
| COc1c(O)cc2oc3c(OC)c(O)ccc3c(=O)c2c1O | 32 |
| CC(C)=CCc1cc(O)c2c(=O)c3cccc(O)c3oc2c1O | 40 |
| O=c1c2cc(O)ccc2oc2cc(O)cc(O)c12 | 8 |
| Cc1c(O)cc(O)c2c(=O)c3ccccc3oc12 | 4.3 |
| Cc1c(O)c(Cl)c2oc3ccccc3c(=O)c2c1O | 27 |
| O=c1c2cccc(O)c2oc2cc(O)cc(O)c12 | 3.8 |
| O=c1c2ccccc2oc2cc(O)ccc12 | 1.1 |
| COc1cc(O)c2oc3c(C)ccc(OC)c3c(=O)c2c1 | 24 |
| Cc1c(O)cc2oc3ccccc3c(=O)c2c1O | 3.7 |
| COc1cc(O)c2c(=O)c3c(O)ccc(O)c3oc2c1 [BELLIDIFOLIN] | 0.66 |
| COc1cc(O)c2c(=O)c3c(OC)c(OC)ccc3oc2c1 [DECUSSATIN] | 19 |
| O=c1c2c(O)cc(O)cc2oc2c(O)ccc(O)c12 [DEMETHYLBELLIDIFOLIN] | 13 |
| COc1cc(O)c2c(=O)c3c(O)c(O)ccc3oc2c1 [GENTIAKOCHIANIN] | 8.5 |
| O=c1c2ccccc2oc2ccccc12 [XANTHONE] | 0.84 |

Continued, values first:

| IC50 [µM] | SMILES |
| --- | --- |
| 29 | COc1cc(O)c2c(=O)c3cccc(OC)c3oc2c1 |
| 23 | COc1cccc2c(=O)c3ccc(O)cc3oc12 |
| 4.5 | O=c1c2ccc(O)cc2oc2c(O)cccc12 |
| 65 | COc1c(O)ccc2c(=O)c3ccccc3oc12 |
| 31 | COc1ccc2c(=O)c3ccccc3oc2c1OC |
| 36 | COc1ccc2c(=O)c3cccc(OC)c3oc2c1 |
| 0.18 | COc1ccc2c(=O)c3ccccc3oc2c1 |
| 58 | COc1cc(OC)c2c(=O)c3cccc(OC)c3oc2c1 |
| 51 | COc1c(O)cc2oc3c(OC)cccc3c(=O)c2c1O |
| 5.3 | COc1ccc2oc3ccccc3c(=O)c2c1 |
| 18 | COc1ccc2c(=O)c3ccccc3oc2c1O |
| 37 | COc1cc2oc3c(OC)cccc3c(=O)c2c(OC)c1OC |
| 51 | COc1cccc2oc3c(O)cccc3c(=O)c12 |
| 20.2 | COc1cc(OC)c2c(=O)c3ccccc3oc2c1 |
| 30 | COc1cccc2c(=O)c3ccccc3oc12 |
| 0.11 | COc1cc(O)c2c(=O)c3ccccc3oc2c1 |
| 1.3 | O=c1c2ccccc2oc2c(O)cccc12 |
| 0.04 | COc1cc(O)c2c(=O)c3cccc(O)c3oc2c1 |
| 0.9 | COc1cccc2oc3ccccc3c(=O)c12 |
